Cc1c(N)cccc1C(=O)O
solubility (mole fraction)
Conditions	288.15 K	293.15 K	298.15 K	303.15 K	308.15 K	313.15 K	318.15 K	323.15 K	328.15 K
in acetonitrile	0.0004	0.000499	0.000728	0.000986	0.00126	0.0017	0.00202	0.00251	0.00307
in ethanol	0.00373	0.00422	0.00496	0.00628	0.00749	0.00891	0.0105	0.0124	0.0151
in ethyl acetate	0.000961	0.00107	0.00135	0.00173	0.0022	0.00283	0.0035	0.00436	0.00524
in isobutanol	0.00112	0.00132	0.00191	0.00254	0.00322	0.00427	0.00534	0.0069	0.00839
in isopropanol	0.00196	0.00228	0.00298	0.00386	0.00494	0.00629	0.0079	0.00991	0.0123
in methanol	0.00532	0.0059	0.00682	0.00844	0.00979	0.0115	0.0136	0.0159	0.0178
in methyl acetate	0.000975	0.00127	0.00179	0.0024	0.00292	0.00347	0.00428	0.00514	0.00571
in n-butanol	0.00236	0.00269	0.00333	0.00442	0.00535	0.00659	0.0079	0.00962	0.0115
in n-propanol	0.00245	0.00277	0.00341	0.00444	0.00542	0.00672	0.00824	0.0101	0.0123
in n-propyl acetate	0.000796	0.000942	0.00109	0.00142	0.00176	0.00225	0.00286	0.00368	0.0047
in sec-butanol	0.00178	0.00209	0.00285	0.00388	0.00513	0.00675	0.00858	0.0111	0.0138
in water	0.000581	0.000588	0.00062	0.000669	0.000718	0.00079	0.000887	0.00098	0.00105

From BigSolDB 2.1
